pKd: −log10 of the molar value.
Key:
FABP4 = target: T1, FABP4 (Homo sapiens, UniProt P15090); assay: FABP binding assay by fluorescence titration (ANS competition); details: fluorescence competition with ANS; read-out: FABP4 binding
T1 construct: made in house
Experimental: (§1) This example illustrates a binding assay study used to determine the binding affinity of the various inhibitor compounds disclosed herein with the various FABPs: FABP3, FABP4, FABP5 and FABP7.
(§2) Binding assays for FABP3, FABP4, FABP5 and FABP7 were carried out by fluorescence titrations. FABPs were bacterially expressed and purified and the equilibrium dissociation constants (Kd) that characterize their interactions with different compounds were measured by fluorescence competition assays. The method entails two steps as described in e.g., Lin, Q. et al., “Ligand selectivity of the peroxisome proliferator-activated receptor alpha,” Biochemistry 38, 185-190, doi:10.1021/bi9816094 bi9816094 [pii](1999). In the first step, Kd for the association of the protein with the fluorescent fatty acid probe ANS was measured. Protein ([…]) was titrated with ANS from a concentrated solution in DMSO. Ligand binding was monitored by following the increase in the fluorescence of the ligand upon binding to the protein, and Kd for the association of ANS with the each FABP was computed from titration curves as described in e.g., Norris, A. W. & Li, E., “Fluorometric titration of the CRABPs,” Methods Mol Biol 89, 123-139 (1998)). Kds for binding of non-fluorescent ligands were then measured by monitoring their ability to displace ANS in the binding pocket of the protein. Each FABP was pre-complexed with ANS at 1:1 molar ratio and titrated with the different compounds whose binding was reflected by a decrease in probe fluorescence. Kds were extracted from the EC50 of the competition curve and the measured Kd for ANS.
(§3) Binding assays for FABP3, FABP4, FABP5 and FABP7 were carried out by fluorescence titrations as described in Example 16.

FABP5 = target: T2, FABP5 (Homo sapiens, UniProt Q01469); assay: as above; details: fluorescence competition with ANS; read-out: FABP5 binding
T2 construct: made in house
Experimental: as §1, §2, §3

PPARδ = assay: Transactivation assay, PPRE luciferase reporter in COS-7 cells; format: cell-based; details: 5 μM, COS7 cells, FIG. 36A
Experimental: COS-7 were cultured in 6-well plates and co-transfected with either a luciferase reporter driven by 3 copies of a PPRE and expression vector for either PPARδ, PPARα or PPARγ together with a vector harboring cDNA for β-galactosidase, serving as a transfection control. To test whether FABP4 or FABP5 mediate activation of their cognate receptors PPARγ and PPARδ, respectively, cells were also co-transfected with a plasmid harboring sequence of either FABP4 or FABP5. 18 h post-transfection, cells were placed in a serum-free medium and treated with agonist/compound. 18 h. later, cells were lysed, luciferase activity was assayed (Promega, WI, USA) and corrected for transfection efficiency by the activity of β-galactosidase.
COS-7 were cultured in 6-well plates and co-transfected with either a luciferase reporter driven by 3 copies of a PPRE and expression vector for either PPARδ, PPARα or PPARγ together with a vector harboring cDNA for β-galactosidase, serving as a transfection control. 18 h. post-transfection, cells were placed in a serum-free medium and treated with agonist/compound. 18 h. later, cells were lysed, luciferase activity was assayed (Promega, WI, USA) and corrected for transfection efficiency by the activity of β-galactosidase.

HepG2 cells = assay: Lipid uptake assay, oleic acid, Nile Red (steatosis model); format: cell-based, human; details: OA 1 mM 24 h, compound 4 h before
Experimental: 2) Hepg2 cells: 5000 cells were plated in 96-well plate. The next day cells were treated with tested compounds for 4 hours and then treated with 1 mM oleic acid for additional 24 hours. Cells were then stained with Nile Red and Dapi and lipid content was quantified using Cytation5 (Agilent).
2) Hepg2 cells: 5000 cells were plated in 96-well plate. The next day cells were treated with tested compounds for 4 hours and then treated with 1 mM oleic acid for additional 24 hours. Cells were then stained with Nile Red and Dapi and lipid content was quantified.

MB-231 cells = assay: Proliferation assay (Incucyte confluency, 4 days); format: cell-based; details: MB-231, serial dilution
Experimental: (§4) COS-7, MDA-MB-231, HepG2, LX-2, 3T3-L1, NPG, and MCF7 were cultured in Dulbecco's modified Eagle's medium (DMEM) supplemented with 10% fetal bovine serum (Invitrogen Life Sciences, Carlsbad, CA). MDA-MB-157 and MB-549 cells were cultured in L-Glutamine containing RPMI medium supplemented with 10% fetal calf serum (Invitrogen Life Sciences, Carlsbad, CA). For proliferation assays, 2000 cells were plated in each well of 96-well plate. The next day cells were treated with compounds and incubated in Incucyte for 4 days. Images taken every 4 hours for the duration of the time were analyzed to calculate percentage of confluency in response to the treatments.
(§5) The TNBC line MB-231 was used to calculate the efficacy of compounds B104, B106, B110, B116, and B118 in inhibiting proliferation of the cancer cells. Cells were treated with serial dilution of the compounds or the known FABP5/7 inhibitor SBF-I26 and proliferation was measured in Incucyte by calculating percentage of confluency every 4 hours over 4 days. […] The EC50 for each compound was calculated by fitting the percentage of inhibition vs. the logarithmic transformation of the used concentrations (FIG. 37B and FIG. 37D). Additionally, the effect of B116 and B118 was also tested on proliferation of the human TNBC lines MDA-MB-157 (FIG. 37E) and MB-549 (FIG. 37F).

MB-549 = assay: Proliferation assay (Incucyte confluency, 4 days); format: cell-based, human; details: MB-549, 4 days
Experimental: as §4, §5

MDA-MB-157 = assay: Proliferation assay (Incucyte confluency, 4 days); format: cell-based, human; details: MDA-MB-157, 4 days
Experimental: as §4, §5

[1] = test system: NPG human neuroblastoma cells; assay: Neuroblastoma proliferation assay with or without all-trans retinoic acid; format: cell-based; details: for proliferation of neuroblastoma cells in combination with atRA: combined with atRA; for proliferation of neuroblastoma cells: compound alone, 4 days
Experimental: as §4
Activation of PPARβ by atRA shifts the signaling of this vitamin from its cognate receptor RAR that is known to have anti-carcinogenic activities in multiple cancers to the pro-carcinogenic PPARβ. […] Accordingly, NB, human NPG cells were used to test the effect of FABP5 inhibitors on cells' proliferation in combination with atRA. Cells were treated with either B104 or B108 in the presence or absence of atRA.

T2 sequence (Q01469 whole entry, species assumed): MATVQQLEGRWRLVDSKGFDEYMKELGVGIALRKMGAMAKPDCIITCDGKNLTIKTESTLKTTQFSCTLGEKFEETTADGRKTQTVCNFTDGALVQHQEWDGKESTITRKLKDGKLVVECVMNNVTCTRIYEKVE
T1 sequence (P15090 whole entry, species assumed): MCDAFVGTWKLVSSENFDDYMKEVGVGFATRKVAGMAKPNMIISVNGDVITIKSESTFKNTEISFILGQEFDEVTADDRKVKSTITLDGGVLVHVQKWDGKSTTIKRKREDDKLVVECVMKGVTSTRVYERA

pKd (FABP4)	pKd (FABP5)	SMILES	activation of transcription by PPARδ (PPARδ)	uptake of lipid into hepatic cells (Nile Red) (HepG2 cells)	suppression of growth of TNBC cells compared with SBF-I26 (MB-231 cells)	proliferation (MB-549)	proliferation (MDA-MB-157)	proliferation of neuroblastoma cells in combination with atRA [1]	proliferation of neuroblastoma cells [1]
7.05	8.52	CC(C)Oc1cc(NC(=O)CC(C)(C)CC(=O)O)c(Cl)cc1Cl [Compound B116, 5-((2,4-dichloro-5-isopropoxyphenyl)amino)-3,3-dimethyl-5-oxopentanoic acid]	do not Activate Transcription	markedly inhibited	Suppress Growth of TNBC Cells More Effectively than the Commercially Available Inhibitor SBF-I26	inhibited proliferation of both TNBC lines	inhibited proliferation of both TNBC lines	sensitize cells to all-trans retinoic acid treatments	inhibit growth of neuroblastoma
7.11	8.70	CC(C)Oc1cc(NC(=O)CC2(CC(=O)O)CCCC2)c(Cl)cc1Cl [Compound B118, 2-(1-(2-((2,4-dichloro-5-isopropoxyphenyl)amino)-2-oxoethyl)cyclopentyl)acetic acid]	do not Activate Transcription	markedly inhibited	Suppress Growth of TNBC Cells More Effectively than the Commercially Available Inhibitor SBF-I26	inhibited proliferation of both TNBC lines	inhibited proliferation of both TNBC lines	sensitize cells to all-trans retinoic acid treatments	inhibit growth of neuroblastoma

Source: US12570603B2, “FABP4/5 inhibitors, methods of use and methods of making” (Novius Therapeutics, LLC, priority 2021, dated 2026)
